Test [1] deals with T1, H3R (Homo sapiens, UniProt Q9Y5N1).
T1 construct: expressed in transfected cells
Briefly: CRE-driven luciferase reporter gene assay in HEK-293 cells stably expressing hH3R. The test is classed as cell-based. The protocol:
A, Concentration inhibition curve of luciferase activity induced by ZEL-H16 with forskolin stimulation. […] C. […] The presented data points are the mean ±SE of triplicate values from a single experiment and are representative of three to six separate experiments (*p<0.05; **p<0.01).
Luciferase activity was detected using a firefly luciferase kit (Promega, Madison, WI). When required, cells were treated overnight with or without PTX (100 ng/ml) in serum-free DMEM before the experiment.

Test [2] has as its target T2, rat brain H3R (Rattus norvegicus, UniProt Q9QYN8).
T2 construct: from tissue; host or cells: rat cerebral cortex membranes
Put plainly: Competitive/saturation binding with [3H]N-α-methylhistamine, rat cerebral cortex membranes. The note with it: 2 nM [3H]N-α-methylhistamine, rat cerebral cortex membranes. The protocol: Figure 4 Competition binding experiments with [^3H]-N-α-methylhistamine. […] The presented data are the means ±SE of values from a single experiment performed in duplicate and are representative of three to six separate experiments.
The membranes (50 µg of protein) were incubated with [^3H] N-α-methylhistamine at various concentrations (from 0.03 nM to 50 nM) for saturation binding assays. For competitive binding assays, the membranes (50 µg of protein) were incubated with 10 nM [^3H] N-α-methylhistamine for recombinant hH3R or 2nM [^3H] N-α-methylhistamine for rat brain H3R in the presence of various compound concentrations in the buffer (50 mM Tris–HCl, pH 7.4). […] Following three washes, the membrane-bound radioactivity was measured on a Topcount (PerkinElmer) at 20°C. […] IC50 values were converted to Ki values using the Cheng-Prusoff equation. Each experiment was performed in duplicate and repeated three to six times. All data were analyzed by nonline arregression using GraphPad Prism version 4.0 software.

Test [3] addresses T3, H3R (Cavia porcellus, UniProt Q9JI35).
T3 construct: from tissue; host or cells: guinea-pig ileum segments
Briefly: Guinea-pig ileum bioassay, inhibition of electrically induced twitch. How it is done:
Each point is the mean ± s.e.m. of three to six separate experiments.
The procedure used was as described previously. Adult male guinea pigs (300–500 g) were killed by cervical dislocation. The ileum was removed at a point 20 cm from the caecum and flushed with and placed in modified K–H buffer of following composition: 118 mM NaCl, 5.9 mM KCl, 1.2 mM CaCl2, 1.2 mM MgSO4, 1 mM Na2HPO4, 25 mM NaHCO3 and 10 mM D-glucose. Ileum segments (2.5–3 cm) were suspended in 20 ml organ baths containing K–H buffer maintained at 37°C and gassed with 95% O2/5% CO2. Contractile activity under stimulation (rectangular pulses of 15 V, 0.5 ms, and 0.1 Hz) was recorded using isometric transducers (Grass FTO3). […] Mepyramine ([…]) and famotidine ([…]) (Sigma-Aldrich, St. Louis, MO) were added to the K–H buffer to block postsynaptic H1 and presynaptic H2 receptors, respectively.

In test [4] the target is T1, H3R. Put plainly: H3R internalization, cell-surface ELISA in HEK-293 cells stably transfected with Flag-H3R. The note with it: 100 µM, 45 min at 37°C. It counts as cell-based. How it is done: ELISA data are expressed as the percentage of receptors detected on the surface of agonist-untreated cells expressing H3R. Error bars represent the SEM for four replicates.
The cell surface expression of H3R was quantitatively assessed by ELISA and performed as described previously. Briefly, HEK-293 cells stably transfected with the pCMV-H3R construct were seeded in 48-well dishes coated with poly-L-lysine. […] Medium was aspirated and the cells were washed once with Tris-buffered saline (TBS). […] Cells were then incubated for 1 h with an alkaline phosphatase-conjugated monoclonal antibody directed against the Flag epitope and diluted 1∶1,000. Cells were washed 3 times, and antibody binding was visualized by adding 0.25 mL of an alkaline phosphatase substrate (Bio-Rad). Development was stopped by adding 0.1 mL of the substrate to a 96-well microtiter plate containing 0.1 mL of 0.4 M NaOH.
For orientation: In an ELISA, binding on a coated surface is turned into a signal by an enzyme label.

The target of test [5] is T4, hH2R (Homo sapiens, UniProt P25021).
T4 construct: expressed in transfected cells
Put plainly: CRE-driven luciferase activity in HEK-293 cells stably expressing hH2R. The test is classed as cell-based. The text has this:
(§1) Figure 3 The selectivity of ZEL-H16 for hH3R in intracellular Ca^2+ flux assay and CRE-luciferase transcription assay. A–C, Intracellular Ca^2+ flux or CRE-driven luciferase activity induced by ZEL-H16 in HEK-293 cells stably expressing hH1R (A), hH2R (B), or hH4R (C). […] The presented data points are the mean ±SE of triplicate values from a single experiment and are representative of three separate experiments. Statistical analysis between ZEL-H16 added or not added for each concentration point in the kinetic graph was done using a t-test (PRISM software). G, Relative expression of hH1R, hH2R, hH3R and hH4R on transfected HEK-293 cells by ELISA quantification for Flag-tagged cell-surface receptors (***p<0.001, compared to non-transfected HEK 293 cells).
(§2) Stable HEK-293 cells co-transfected with H3R and pCRE-Luc were seeded in a 48-well plate overnight and were grown to […] confluence. […] Luciferase activity was detected using a firefly luciferase kit (Promega, Madison, WI). When required, cells were treated overnight with or without PTX (100 ng/ml) in serum-free DMEM before the experiment.

For test [6], the target named is T5, mouse H3R (Mus musculus, UniProt P58406).
T5 construct: endogenous in cells; host or cells: primary cortical neurons of neonatal ICR mice
Briefly: ERK1/2 phosphorylation in neonatal mouse cortical neuron cultures. The test is classed as cell-based. As to conditions: 5 µM. How it is done:
Figure 8 Phosphorylation of ERK1/2 induced by ZEL-H16 in mouse cortical neurons. A, Time-dependent phosphorylation of ERK1/2 induced by 5 µM ZEL-H16 in neonatal mouse cortical neuron cultures. B, The phosphorylation of ERK1/2 induced by 50 µM ZEL-H16 for 20 min was mostly abolished by 100 ng/mL PTX or 10 µM thioperamide. Signals were quantified by densitometric image analysis and p-ERK was normalized to a loading control (ERK). The signal at each point is expressed as the percentage of the maximal p-ERK signal induced by ZEL-H16. Data represent the mean ±SE of three independent experiments.
Neuronal cortical cultures were prepared from neonatal ICR mice. Cerebral cortices were dissociated in sterile Dulbecco’s phosphate-buffered saline (D-PBS; Sigma-Aldrich, St. Louis, MO), and the neurons were isolated in the same medium containing 0.5% trypsin at 37°C for 10 min. After centrifugation, dissociated neurons were re-suspended in neurobasal medium (NBM; Gibco, Carlsbad, CA) supplemented with 2% B-27 and 0.5 mmol/L-glutamine (Gibco, Carlsbad, CA) and then plated on 48-well plates at a density of approximately 1.3×10^6 per well. After 7 days of culture, the neurons were serum starved for approximately 3 h prior to drug treatment. […]

Test [7] has as its target T6, hH4R (Homo sapiens, UniProt Q9H3N8).
T6 construct: expressed in transfected cells
Put plainly: CRE-driven luciferase activity in HEK-293 cells stably expressing hH4R. It counts as cell-based.
Description: as §1, §2

Structures are written as SMILES.

The source of these data is PMC3411647 (PLoS ONE, 2012).

T1 sequence (Q9Y5N1 whole entry): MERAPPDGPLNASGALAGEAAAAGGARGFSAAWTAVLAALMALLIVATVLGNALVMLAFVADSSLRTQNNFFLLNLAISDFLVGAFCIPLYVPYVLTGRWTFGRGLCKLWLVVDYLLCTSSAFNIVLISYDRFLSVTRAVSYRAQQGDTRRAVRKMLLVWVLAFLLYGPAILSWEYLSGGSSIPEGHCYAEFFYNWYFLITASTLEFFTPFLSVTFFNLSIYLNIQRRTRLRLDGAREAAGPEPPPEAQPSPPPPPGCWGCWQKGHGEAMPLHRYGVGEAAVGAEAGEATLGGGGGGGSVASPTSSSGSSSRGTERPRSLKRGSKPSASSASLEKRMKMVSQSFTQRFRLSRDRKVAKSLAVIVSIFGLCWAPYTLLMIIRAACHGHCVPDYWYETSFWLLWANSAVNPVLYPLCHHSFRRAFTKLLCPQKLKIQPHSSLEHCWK
T3 sequence (Q9JI35 whole entry): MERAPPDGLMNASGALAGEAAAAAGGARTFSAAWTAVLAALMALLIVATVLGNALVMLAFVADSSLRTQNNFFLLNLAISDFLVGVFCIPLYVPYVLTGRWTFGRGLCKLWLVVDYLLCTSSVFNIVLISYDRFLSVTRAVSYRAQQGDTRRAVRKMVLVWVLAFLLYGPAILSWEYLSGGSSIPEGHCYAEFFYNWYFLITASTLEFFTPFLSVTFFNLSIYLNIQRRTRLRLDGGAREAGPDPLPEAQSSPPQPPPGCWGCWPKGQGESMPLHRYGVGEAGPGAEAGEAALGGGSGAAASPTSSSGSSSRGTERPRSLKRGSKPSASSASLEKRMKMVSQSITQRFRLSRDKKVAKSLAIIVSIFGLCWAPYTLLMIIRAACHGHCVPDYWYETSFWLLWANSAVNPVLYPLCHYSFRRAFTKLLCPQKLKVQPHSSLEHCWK
T4 sequence (P25021 whole entry): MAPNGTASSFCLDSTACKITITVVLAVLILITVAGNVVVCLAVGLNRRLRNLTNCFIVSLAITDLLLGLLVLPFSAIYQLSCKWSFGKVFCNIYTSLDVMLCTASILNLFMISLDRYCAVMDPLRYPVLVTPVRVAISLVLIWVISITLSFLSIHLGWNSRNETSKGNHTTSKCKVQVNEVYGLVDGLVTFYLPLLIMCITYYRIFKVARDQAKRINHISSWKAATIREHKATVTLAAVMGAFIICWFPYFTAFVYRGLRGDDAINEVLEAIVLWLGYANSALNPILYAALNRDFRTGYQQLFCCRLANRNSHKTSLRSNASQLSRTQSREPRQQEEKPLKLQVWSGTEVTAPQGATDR
T6 sequence (Q9H3N8 whole entry): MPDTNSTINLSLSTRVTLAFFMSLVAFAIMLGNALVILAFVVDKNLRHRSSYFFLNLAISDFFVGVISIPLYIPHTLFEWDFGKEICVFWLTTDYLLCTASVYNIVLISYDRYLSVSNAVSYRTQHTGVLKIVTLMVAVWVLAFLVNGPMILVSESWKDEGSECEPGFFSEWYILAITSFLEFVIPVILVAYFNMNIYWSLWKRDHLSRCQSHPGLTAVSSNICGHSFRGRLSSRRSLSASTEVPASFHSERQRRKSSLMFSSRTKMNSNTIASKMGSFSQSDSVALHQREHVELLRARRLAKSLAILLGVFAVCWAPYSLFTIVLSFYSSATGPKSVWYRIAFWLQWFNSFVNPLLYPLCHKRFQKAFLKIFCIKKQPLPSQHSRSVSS
T2 sequence (Q9QYN8 whole entry): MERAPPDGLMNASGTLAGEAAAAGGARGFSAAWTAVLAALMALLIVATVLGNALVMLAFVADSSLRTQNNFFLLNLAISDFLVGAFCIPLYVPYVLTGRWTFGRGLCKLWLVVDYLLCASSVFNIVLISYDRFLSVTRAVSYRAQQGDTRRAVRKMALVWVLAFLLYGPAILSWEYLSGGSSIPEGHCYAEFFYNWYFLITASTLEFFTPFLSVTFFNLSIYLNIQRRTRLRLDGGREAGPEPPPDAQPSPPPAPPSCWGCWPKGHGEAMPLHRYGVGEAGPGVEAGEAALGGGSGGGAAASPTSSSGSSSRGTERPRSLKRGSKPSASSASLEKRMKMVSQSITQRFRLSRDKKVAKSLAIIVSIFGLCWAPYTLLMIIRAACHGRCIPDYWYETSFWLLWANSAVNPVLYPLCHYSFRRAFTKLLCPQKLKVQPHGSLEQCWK
T5 sequence (P58406 whole entry): as the sequence (Q9QYN8 whole entry) above, with T15A, A286T, A290G, R387H, I389V counted along it

On to `c1ccc2c(c1)c(CCCN1CCCCC1)cn2CCCN1CCCCC1` [ZEL-H16], for which the maximal effect (Emax) (usually the maximal effect, on the per cent scale that the assay sets) in test [1] (HEK293) was determined as 61 ± 3.2%. In test [1] (agonist curves in the presence of 30 nM, 300 nM or 1 µM thioperamide), the Schild slope was 1.140±0.168. Also, the EC50 in test [1] (inhibition of forskolin-induced luciferase activity, Mean ± SEM, n = 6) was 4.36 ± 1.39 nM; in test [3] (inhibition of electrically induced twitch, read-out: pD 2 (converted)) it was 269 nM. For the same compound, the affinity in test [2] corresponds to a Ki of 4.36 ± 2 nM. Besides, the “efficacy of inhibition of the contractions of the guinea pig ileum” value in test [3] (electrically induced twitch, mepyramine and famotidine present) turned out to be 54.03±5.13%. For the same compound, the “loss in the expression of the receptors on the cell surface (internalization)” value in test [4] is listed as 50%. In addition, the “antagonist activity: influence on luciferase activity curves induced by histamine” value in test [5] (ZEL-H16 added to histamine) and in test [7] (ZEL-H16 added to histamine) was “did not significantly change the luciferase activity curves” throughout. The “agonist activity: luciferase activity after stimulation” value in test [5] (ZEL-H16 alone) and in test [7] (ZEL-H16 alone) was “no significant responses” in each case. Besides, the “time of maximal ERK activation after stimulation” value in test [6] was determined as 20 min.
